The experiment concerns the target T1, MeCP2-TBL1 interaction (MeCP2-SmBiT / TBL1-LgBiT) (Mus musculus, UniProt Q9QXE7).
T1 construct: expressed in transfected cells; crude lysate used as a cell-free assay
T1 sequence (Q9QXE7 166-527): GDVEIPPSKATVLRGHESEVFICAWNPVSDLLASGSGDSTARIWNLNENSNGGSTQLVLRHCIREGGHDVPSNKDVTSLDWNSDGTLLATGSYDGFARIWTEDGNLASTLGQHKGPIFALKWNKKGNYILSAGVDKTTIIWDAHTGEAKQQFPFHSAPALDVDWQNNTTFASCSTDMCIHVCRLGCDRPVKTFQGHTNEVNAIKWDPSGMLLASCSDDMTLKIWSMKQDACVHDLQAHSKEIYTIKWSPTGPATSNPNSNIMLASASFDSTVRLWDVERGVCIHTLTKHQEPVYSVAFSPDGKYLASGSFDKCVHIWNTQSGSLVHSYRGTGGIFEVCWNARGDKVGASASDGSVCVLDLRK
In words: MeCP2-TBL1 NanoLuc luciferase complementation assay (cell-free, extracts of transfected HEK293 cells).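 Note: each compound tested at 20 µM final concentration.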 Format: binding, human. The procedure, abridged:
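Cell-free split NanoLuc: lysate of HEK293 cells co-expressing the MeCP2 C-terminal half-SmBiT and TBL1 WD domain-LgBiT, mixed 1:1 with furimazine. After 30 min at room temperature, luminescence was plate-median normalized.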

Where [1] appears, read: primary screen of Asinex library, single well per compound.
[2] abbreviates: primary screen of the Asinex library, sheet "Sargen output Asinex library", one well per compound, Batch Ref. 1.
The mark [3] stands for this setting: primary screen of the Asinex library, sheet "Sargen output Asinex library", one well per compound.

The record followed here is paper PMC9995496, “A screen for MeCP2-TBL1 interaction inhibitors using a luminescence-based assay” (Scientific Reports, 2023).

Regarding `COCCOc1cccc(CN2[C@H](Cc3ccccc3F)C[C@@H]3NC(=O)CCCC[C@H]32)c1` [BDG_23917768], the Inhibition percent under setting [1] is listed as -0.22.
On to `CCN1CCN(C(=O)Cc2ccccc2OC)C(Cc2cccc(-c3ccncc3)c2)C1=O` (stereo not drawn) [BDD_21872283], for which, under setting [2], the Inhibition percent was -1.27%.
Consider `O=C(NCCC1CCCCN1C(=O)CCN1C(=O)COc2ccc(Cl)cc21)c1ccccc1` (stereo not drawn) [BDH_33629495], for which the Inhibition percent under setting [2] is reported as -0.39%.
`O=C1COC2(CCCN(C(=O)c3ccccc3Cn3ccnc3)CC2)CN1CCc1ccccc1` (stereo not drawn) [BDH_32371928]: under setting [1], the Inhibition percent is recorded as -2.75.
In the case of `Cc1ccccc1OCCN1C(=O)CCc2c(C)nc(CN(C)C(=O)C3CCCC3)nc21` [BDE_24687458], the Inhibition percent under setting [2] is -1.66%.
Turning to `Cc1cccc(Oc2cncc(C3CCCN(C(=O)c4ccnc(N5CCN(C)CC5)c4)C3)n2)c1` (stereo not drawn) [BDH_32358106], the Inhibition percent under setting [2] was 0.42%.
Same read-out and setting: the same measure for `CNC(=O)c1sc2nc(C3CCCCN3C(=O)CCCNc3ncccn3)ccc2c1N` (stereo not drawn) [BDH_33629130]: -2.07%.
As to `CC1(C)Oc2ccccc2[C@@H]2O[C@@H]3CCN(C(=O)CCN4CCCC4=O)[C@@H]3C[C@H]21` [BDG_33901240], the Inhibition percent under setting [1] is recorded as 0.48.
Turning to `CC1(C)Oc2ccccc2[C@H]2OCC3(CCN(C(=O)c4cccc(-n5cnnc5)c4)CC3)C[C@@H]21` [BDG_33695504], the Inhibition percent under setting [2] worked out at 0.97%.
`COc1ccc(S[C@@H]2CCO[C@@H](CCNC(=O)c3cc(OC)nc(OC)n3)C2)cc1` [BDF_22929100]: the Inhibition percent under setting [3] was -1.50%.
Consider `C[C@]12C[C@@H](Cc3ccccc3)N(C(=O)CCCNc3ncnc4ccccc34)[C@H]1CCCC(=O)N2` [BDG_33628681], for which the Inhibition percent under setting [2] was -1.67%.
Consider `C[C@]12C[C@@H](Cc3ccccc3)N(C(=O)c3cccc(CN4CCCC4=O)c3)[C@H]1CCCC(=O)N2` [BDH_32374892], for which the Inhibition percent under setting [2] is listed as -1.59%.
Regarding `COc1ccccc1OCC(=O)N1[C@@H](Cc2ccccc2)[C@@H]2C[C@@]3(C)[C@H](CCC[C@@H]13)N2` [BDG_33503207], the Inhibition percent under setting [2] worked out at 2.88%.
For `CC(=O)N[C@H](CC(N)=O)C(=O)N1CC[C@@H]2O[C@@H]3c4ccccc4OC(C)(C)[C@H]3C[C@@H]2C1` [BDG_33905309], the Inhibition percent under setting [1] was 0.54.
Take `CC(=O)N1CCC(C(=O)N[C@@H]2C[C@@H](Oc3cccc(F)c3)[C@H](O)[C@H]2N(C)Cc2ccccc2)CC1` [BDI_34055064]: under setting [3], the Inhibition percent came to 0.18%.
`COc1cccc(N2CCC(O)(CN3C[C@@H](c4cccc(F)c4)[C@@]4(CCCC(=O)N4)C3)CC2)c1` [BDH_33611042]: the Inhibition percent under setting [2] was determined as 2.32%.
On the same count and under the same terms, the same measure for `CC(=O)N[C@@]12CN(CC(=O)Nc3ccc4nc(C)[nH]c4c3)CC[C@@H]1[C@@H](c1ccccc1)N(C(C)=O)C2` [BDH_33616134]: 1.14%.
As to `Cc1cc(-c2cnc(C(C)(C)C)nc2C2CCN(Cc3ccc(N4CCCC4)cc3)CC2)on1` [BDD_25871827], the Inhibition percent under setting [3] was 3.48%.
For the compound `Cc1cc(Oc2ccccc2F)nc(C2CCCCN2C(=O)c2ccnc(-c3cncnc3)c2)n1` (stereo not drawn) [BDH_32366371], the Inhibition percent under setting [1] is 0.18.
`C[C@]12C[C@@H](c3ccc(F)cc3)N(C(=O)c3cccc(Oc4ncccn4)c3)[C@H]1CCCCC(=O)N2` [BDH_32362535]: the Inhibition percent under setting [1] is on record as -1.66.
`CC(=O)Nc1ccc(NC(=O)CN2[C@H](Cc3ccccc3)C[C@]3(C)NC(=O)CCC[C@H]23)c(Cl)c1` [BDH_33623952]: under setting [3], the Inhibition percent worked out at 1.80%.
Take `COCC(=O)N1CC2(CO[C@@H]3c4cccc(OC)c4OC(C)(C)[C@H]3C2)C1` [BDG_33739062]: the Inhibition percent under setting [2] is -2.32%.
Turning to `O=C(O)CCC(=O)N[C@@H]1C[C@@H](Oc2cccc(C(F)(F)F)c2)[C@H](O)[C@H]1N1CCc2ccccc2C1` [BDG_34049652], the Inhibition percent under setting [1] is on record as -0.28.
Take `C[C@@H]1CC[C@@H]2[C@@H](O1)c1cc(OCc3ccccc3)c(CO)cc1OC2(C)C` [BDG_34027487]: under setting [3], the Inhibition percent was -0.0357%.
Take `C[C@]12C[C@@H](Cc3ccccc3)N(CC(=O)NCCc3nc4ccccc4[nH]3)[C@H]1CCCC(=O)N2` [BDH_33616100]: the Inhibition percent under setting [3] is on record as -2.04%.
Take `COCc1nc2ccccc2n1CC(=O)N1CCCCC1C1CCN(C(=O)c2cnc(C)cn2)CC1` (stereo not drawn) [BDE_33628056]: the Inhibition percent under setting [3] is -2.31%.
`CC(=O)NCCCCCC(=O)N1CC[C@H]2O[C@H]3c4cc(C(C)(C)C)ccc4OC(C)(C)[C@@H]3C[C@@H]21` [BDG_34131400]: under setting [1], the Inhibition percent was 3.20.
On to `Cn1cc(CC(=O)N2C[C@@H](c3cccc(F)c3)[C@@]3(CCCCC(=O)N3)C2)c2ccccc21` [BDH_32306274], for which the Inhibition percent under setting [2] came to 1.56%.
On to `O=C(c1ccccc1CN1CCOCC1)N1CCCC(Cc2cnc3ccccc3c2)CC1` (stereo not drawn) [BDH_32342370], for which, under setting [3], the Inhibition percent was -1.09%.
For `Cc1cc(Oc2ccccc2)nc(C2CCN(C(=O)C3(C)CCN(c4ncccn4)CC3)CC2)n1` [BDH_32359876], the Inhibition percent under setting [3] was 3.25%.
Regarding `Cc1nn(C)cc1C(=O)N1CCCCC1c1ncccc1C(=O)NCc1ccccc1` (stereo not drawn) [BDE_24469941], the Inhibition percent under setting [1] is -0.10.
In the case of `O=C(c1ccc(Cc2ccc(F)cc2)nc1)N1CCCC2(CC1)CN(c1ccccc1)C(=O)O2` (stereo not drawn) [BDH_32295955], under setting [1], the Inhibition percent is given as -2.84.
Consider `CC(C)(C)OC(=O)N1CC[C@H]2O[C@H]3c4ccccc4OC(C)(C)[C@@H]3C[C@@]2(CO)C1` [BDG_33896521], for which, under setting [3], the Inhibition percent amounted to 3.83%.
As to `Cc1cc(CC2CCN(C(=O)C3(C)CCN(C(=O)Cc4cccc(F)c4)CC3)CC2)ccn1` [BDH_32366782], the Inhibition percent under setting [3] is given as 4.29%.
Take `Cn1c(CCC(=O)N2CC[C@@H]3[C@H]2CCCC(=O)N3Cc2ccc(F)cc2)nc2ccccc21` [BDG_23960040]: the Inhibition percent under setting [2] amounted to 1.86%.
On the same count and under the same terms, next, `Cc1cc(Nc2cccc(C3CN(C(=O)Cc4ccc5c(c4)CCCO5)CCO3)n2)nn1C` (stereo not drawn) [BDF_25246163]: -0.41%.
`CC(C)c1nccn1CCC(=O)N1[C@H](Cc2ccccc2)C[C@]2(C)NC(=O)CCC[C@H]12` [BDH_33632337]: the Inhibition percent under setting [3] came out at 1.15%.
Consider `Cc1cc(C)n(-c2cccc(C(=O)N3CCCC(c4cncc(Oc5ccccc5)n4)C3)c2)n1` (stereo not drawn) [BDH_32356802], for which, under setting [1], the Inhibition percent is -1.24.
As for `CC(C)(C)OC(=O)N1CC[C@H]2O[C@H]3c4ccc(O)cc4OC(C)(C)[C@@H]3C[C@@H]2C1` [BDG_33953342], the Inhibition percent under setting [3] stood at 2.11%.
Regarding `O=C(COc1ncnc2ccccc12)N1CCCCC1c1ncc(Cc2ccc(F)cc2)o1` (stereo not drawn) [BDE_33513539], the Inhibition percent under setting [2] was -1.92%.
Take `Cc1cc(Oc2ccc(F)cc2)nc(C2CCCN(C(=O)c3cccc(Cn4ccnc4)c3)C2)n1` (stereo not drawn) [BDH_32361331]: the Inhibition percent under setting [3] stood at 1.28%.
Take `Cc1cc(C)nc(NCCC(=O)N2[C@H](Cc3ccccc3)C[C@]3(C)NC(=O)CCC[C@H]23)n1` [BDH_24639981]: the Inhibition percent under setting [2] is reported as -1.66%.
As for `CC1(C)C[C@H]2[C@H](CCCN2C(=O)CCCc2cn[nH]c2)N1c1cccc(C(F)(F)F)c1` [BDG_34130326], the Inhibition percent under setting [2] amounted to 14.87%.
Regarding `CC(=O)N[C@@]12CN(C(C)=O)CC[C@@H]1[C@@H](c1ccccc1)N(CC(=O)Nc1cccc(C)c1C)C2` [BDH_33621434], under setting [3], the Inhibition percent was found to be 5.23%.
Take `CCn1c(=O)oc2cc(NC(=O)CN3C[C@]4(NC(C)=O)CN(C)CC[C@@H]4[C@H]3c3ccccc3)ccc21` [BDH_33617644]: under setting [3], the Inhibition percent is -0.000394%.
As to `Cc1cccc(Oc2cncc(C3CCCN(C(=O)c4cccc(-n5cnnc5)c4)C3)n2)c1` (stereo not drawn) [BDH_32340252], the Inhibition percent under setting [3] was -3.70%.
For `Cc1c(CN2C[C@H](c3ccc(F)cc3)[C@@H](O)[C@H]2C(=O)NCCc2ccccc2)[nH]c2ccc(F)cc12` [BDG_34027529], the Inhibition percent under setting [1] was 6.14.
With `O=C(c1ccccc1CN1CCOCC1)N1CCOCC(Cc2ccc3ccncc3c2)C1` (stereo not drawn) [BDH_32372076], under setting [3], the Inhibition percent was -4.00%.
For `CN(C)c1cncc(C2CCCN2C(=O)C2(C)CCN(C(=O)c3cccc(F)c3)CC2)n1` (stereo not drawn) [BDH_32329258], under setting [3], the Inhibition percent was -1.39%.
Consider `O=C1CCCN1CCOc1cccc(C(=O)N2CCCC(Cc3ccnc4ccccc34)CC2)c1` (stereo not drawn) [BDH_32358595], for which the Inhibition percent under setting [1] was -2.39.
As to `COc1ccccc1C(=O)N1CCC2(CC1)Oc1ccc(Cl)cc1[C@H]1OCCC[C@@H]12` [BDG_33900472], the Inhibition percent under setting [2] stood at 10.01%.
As for `CCn1cc(NC(=O)CN2[C@H]3CCCCC(=O)N[C@@]3(C)C[C@H]2c2cccc(C(F)(F)F)c2)c(C)n1` [BDH_33623667], under setting [1], the Inhibition percent is given as -2.55.
As to `COc1ccc(NC(C)=O)c(NC(=O)CN2C[C@H]3CCC[C@H](Cc4cnccn4)[C@H]3C2)c1` [BDH_33621771], the Inhibition percent under setting [1] was determined as 0.12.
Regarding `CC(=O)N[C@H]1C[C@@H](C(=O)N(C)C)N(CC(=O)Nc2cccc(C(F)(F)F)c2)[C@H]1c1ccccc1` [BDH_33616368], the Inhibition percent under setting [3] is given as -1.15%.
`CN(Cc1ccc(F)cc1)[C@@H]1[C@@H](O)[C@H](Oc2ccccc2F)C[C@H]1NC(=O)CC(C)(C)CC(=O)O` [BDG_34135530]: the Inhibition percent under setting [1] is reported as 5.96.
On to `Cc1c[nH]c(-c2cncc(C3CCCN(C(=O)c4ccnc(Cc5cccc(F)c5)c4)C3)n2)n1` (stereo not drawn) [BDH_33521385], for which, under setting [3], the Inhibition percent was -2.90%.
For the compound `Cc1cc(C2CCCN(Cc3ccc(-c4ccccc4C(=O)O)o3)C2)ccn1` (stereo not drawn) [BDE_30686588], under setting [3], the Inhibition percent is reported as 6.28%.
